Our source for the IC50 values is BindingDB's records for doi:10.1016/j.bioorg.2016.05.009 (Birla Institute of Technology, 2016).

Some results are limits rather than exact numbers.

The assay deals with Gag-Pol polyprotein (Human immunodeficiency virus type 1 group M subtype B (isolate HXB2), UniProt P04585). In words: HIV-1 RT Colorimetric Assay. As to the method: The reaction mixture was set with template primer complex, RT enzyme and dNTPs in a lysis buffer with or without inhibitors. The reaction mixture was incubated at 37 °C for 1 h and then transferred to streptavidin-coated microtitre plate (MTP). The biotin-labeled dNTPs that were incorporated in the template due to activity ofRT, bound to streptavidin. The unbound dNTPs were washed using wash buffer and anti-DIG-POD was added to the MTP. The DIGlabeled dNTPs incorporated in the template were bound to an anti-DIG-POD antibody. The unbound anti-DIG-POD was washed again with washing buffer and the peroxide substrate (ABST) was added to the MTP. A colored reaction product was produced during the cleavage of the substrate catalyzed by a peroxide enzyme. The absorbance of the sample was determined as an optical density (OD) at 405 nm using a micro titer plate ELISA reader.
A word on the IC50: it is the concentration that gives 50% inhibition. The compound `COc1ccc2c(c1)CCCN2CCC(=O)N1CCN(c2cccc(Cl)c2Cl)CC1` [1-(4-(2,3-dichlorophenyl)piperazin-1-yl)-3-(6-methoxy-3,4-dihydroquinolin-1(2H)-yl)propan-1-one (6o)] returned an IC50 of 14.5 µM.
Then `COc1ccc2c(c1)CCCN2CCC(=O)N1CCN(c2ccccc2Cl)CC1` [1-(4-(2-chlorophenyl)piperazin-1-yl)-3-(6-methoxy-3,4-dihydroquinolin-1(2H)-yl)propan-1-one (6i)], with 32.9 µM.
Next, `COc1ccc2c(c1)CCCN2CCC(=O)N1CCN(c2ccccc2F)CC1` [1-(4-(2-fluorophenyl)piperazin-1-yl)-3-(6-methoxy-3,4-dihydroquinolin-1(2H)-yl)propan-1-one (6g)]: 47.5 µM.
`COc1ccc2c(c1)CCCN2CCC(=O)N1CCN(c2cccc(Cl)c2)CC1` [1-(4-(3-chlorophenyl)piperazin-1-yl)-3-(6-methoxy-3,4-dihydroquinolin-1(2H)-yl)propan-1-one (6j)] yielded a 50% inhibitory concentration (IC50) of 18.6 µM.
Then `COc1ccc2c(c1)CCCN2CCC(=O)N1CCN(c2ccc(Cl)cc2)CC1` [1-(4-(4-chlorophenyl)piperazin-1-yl)-3-(6-methoxy-3,4-dihydroquinolin-1(2H)-yl)propan-1-one (6k)], with 24.9 µM; and `COc1ccc2c(c1)CCCN2CCC(=O)N1CCN(c2ccc(F)cc2)CC1` [1-(4-(4-fluorophenyl)piperazin-1-yl)-3-(6-methoxy-3,4-dihydroquinolin-1(2H)-yl)propan-1-one (6h)], with 78.5 µM.
Next, `COc1ccc2c(c1)CCCN2CCC(=O)N1CCN(Cc2ccccc2)CC1` [1-(4-benzylpiperazin-1-yl)-3-(6-methoxy-3,4-dihydroquinolin-1(2H)-yl)propan-1-one (6m)]: more than 100 µM; `COc1ccc2c(c1)CCCN2CCC(=O)N1CCN(c2ccccc2OC)CC1` [3-(6-methoxy-3,4-dihydroquinolin-1(2H)-yl)-1-(4-(2-methoxyphenyl)piperazin-1-yl)propan-1-one (6d)]: 52.8 µM; `COc1cccc(N2CCN(C(=O)CCN3CCCc4cc(OC)ccc43)CC2)c1` [3-(6-methoxy-3,4-dihydroquinolin-1(2H)-yl)-1-(4-(3-methoxyphenyl)piperazin-1-yl)propan-1-one (6e)]: 58.2 µM.
Then `COc1ccc(N2CCN(C(=O)CCN3CCCc4cc(OC)ccc43)CC2)cc1` [3-(6-methoxy-3,4-dihydroquinolin-1(2H)-yl)-1-(4-(4-methoxyphenyl)piperazin-1-yl)propan-1-one (6f)], with more than 100 µM.
`COc1ccc2c(c1)CCCN2CCC(=O)N1CCN(c2ccc([N+](=O)[O-])cc2)CC1` [3-(6-methoxy-3,4-dihydroquinolin-1(2H)-yl)-1-(4-(4-nitrophenyl)piperazin-1-yl)propan-1-one (6l)]: inhibition was half-maximal at 82.7 µM (IC50).
Then `COc1ccc2c(c1)CCCN2CCC(=O)N1CCN(c2ccccn2)CC1` [3-(6-methoxy-3,4-dihydroquinolin-1(2H)-yl)-1-(4-(pyridin-2-yl)piperazin-1-yl)propan-1-one (6n)], with 48.6 µM.
Take `COc1ccc2c(c1)CCCN2CCC(=O)N1CCN(c2ccccc2C)CC1` [3-(6-methoxy-3,4-dihydroquinolin-1(2H)-yl)-1-(4-o-tolylpiperazin-1-yl)propan-1-one (6b)]: the IC50 stood at 12.5 µM.
Next, `COc1ccc2c(c1)CCCN2CCC(=O)N1CCN(c2ccc(C)cc2)CC1` [3-(6-methoxy-3,4-dihydroquinolin-1(2H)-yl)-1-(4-p-tolylpiperazin-1-yl)propan-1-one (6c)]: 28.5 µM; `COc1ccc2c(c1)CCCN2CCC(=O)N1CCN(c2ccccc2)CC1` [3-(6-methoxy-3,4-dihydroquinolin-1(2H)-yl)-1-(4-phenylpiperazin-1-yl)propan-1-one (6a)]: 24.3 µM.
